Measurements reported in patent publication US20150250824A1, “METHODS AND COMPOSITIONS FOR EXPANSION OF STEM CELLS AND OTHER CELLS” (The Research Foundation For The State University Of New York, priority 2014, published 2015).
“Also recorded” adds a separate entry of the source. Where two headings read alike, the source gives them in different places.

Assays:
[1] = test system: CD34+ cells isolated from peripheral blood of G-CSF-mobilized donors; assay: Ex vivo culture of mobilized peripheral blood CD34+ cells with compounds, CD34/CD38 flow cytometry; assay type: cell-based, human; conditions: minimal cytokines
Experimental: CD34+ cells were isolated from cord blood or from peripheral blood of G-CSF-mobilized adult donors and cultured as follows. Mononuclear cells (MNCs) were isolated using a simple red blood cell lysis (15 minutes at room temperature using BD PharmLyse) or using Ficoll-Paque density gradient centrifugation (Jaatinen and Laine, Current Protocols Stem Cell Biol. 1:2A.1.1-2A.1.4. (2007)). The cells were then incubated with MACS CD34+ Microbead kit (Miltenyi Biotec, Auburn, Calif.) and run through a magnetic column resulting in selection for CD34+ cells. […] Human cortex neural stem cell (hcx NSC) cells were purchased from Millipore.
CD34+ cells were cultured in […] medium ([…] Technologies, Vancouver, BC, Canada) supplemented with 10% FBS, 100 ng/ml hSCF (human stem cell factor), 100 ng/ml hTPO (human thrombopoietin), 100 ng/ml hFLT-3 ligand (Human Fms-related Tyrosine Kinase 3) (Peprotech, Rocky Hill, N.J., USA) and 100 U/ml penicillin/streptomycin (Gibco). Human cortex Neural Progenitor Cell line (hcx NSC) was maintained in ReNcell medium: ReNcell NSC Maintenance medium (Millipore) supplemented with 20 ng/ml human EGF, 20 ng/ml human bFGF (Peprotech) and 100 U/ml penicillin/streptomycin. For expansion of cells targeted for cell sorting, we used the same media containing a different cytokine cocktail of 100 ng/ml SCF, TPO and 10 ng/ml IL-3.
(§1) Cells were centrifuged for 5 minutes at 200 G at 4° C. Cells were resuspended with CD34, 38 and/or 41 conjugated antibodies for 30 minutes on ice. Cells were then washed with 2 ml of PBS and centrifuged for 5 minutes at 200 G at 4° C. The final pellet was resuspended using 300 μl of 2% formalin.
CD34+ cells isolated from peripheral blood of G-CSF-mobilized donors were cultured for 11 days with minimal cytokines and the 4 chemical cocktail (C6FZ). […] The population bearing CD34+/CD38− is associated with long-term repopulating HSCs.
CD34+ cells isolated from the peripheral blood of G-CSF-mobilized donors were next cultured for 11 days with minimal cytokines and the individual compounds, C, 6, F and Z (FIG. 13).

[2] = test system: bone marrow CD34+ cells
Experimental: 616452 (also called RepSox), was purchased separately from Biovision and Millipore. […] A fresh aliquot of the chemical was used at every media change and the final concentration in media is 10 μM.
as §1
Flow cytometry study was used to analyze the immunophenotype of cultured cells. As mature, large megakaryocytes may not be detectable by flow cytometry, bone marrow CD34+ cells were cultured for 4 days in order to detect younger, small megakaryocytes. […] However, flow analysis of megakaryocytes is known to be misleading due to the sheer size of the megakaryocytes, which can have a diameter ranging from 20 um to 120 um.

[3] = test system: CD34+ cells isolated from human umbilical CB; assay type: cell-based
Experimental: Megakaryocytes derived from CB in vitro are usually smaller than megakaryocytes derived from bone marrow or mobilized peripheral blood from adults. Small megakaryocyte size may contribute to delayed platelet engraftment when cord blood is used for bone marrow transplantation. To test whether 616452 is able to increase fetal/neonatal megakaryocyte size and ploidy, CD34+ cells isolated from human umbilical CB were cultured in StemSpan SFEM containing SCF, TPO and Flt-3 Ligand. CB CD34+ cells in the presence of TPO after 4 or 8 day culture, were morphologically consistent of a relative homogenous population of small cells (FIG. 19A) and megakaryocytic features such as large nuclear size and cytoplasmic mass were hardly detectable.
One of the unique characteristics of megakaryocytes is the ploidy development of their nuclei, which can be easily measured using propidium iodide (PI), a fluorescent intercalating agent that binds to nucleic acids. Megakaryocyte (Mk) ploidy correlates well with their maturation and platelet production. […] Out of 10,000 events, the control cells only elicited only 1 cell with a ploidy of 16N and nothing thereon greater (FIG. 20A).

[4] = test system: CD41+ cells sorted from cultured CB CD34+ cells
Experimental: FIG. 22. […] CB CD34+ cells were cultured with TPO, SCF, IL-3 for 7 days prior for CD41 selection by flow cytometry.
Cells were isolated for nestin (NSCs) and FLK-1 (hemangioblasts) before further differentiation. For cell sorting, cells were centrifuged for 5 minutes at 200 G at 4° C. and resuspended with 25 μl of CD41-FITC antibody for 30 minutes on ice. Cells are then washed gently with PBS and centrifuged for 5 minutes at 200 G at 4° C. Cells are then suspended at a concentration of 10^6 cells/ml of PBS containing 2% FBS. Cells are sorted via FACS Aria.
To test this issue and the extent of megakaryocytic population in response to the chemical induction, we cultured HUBC CD34^+ cells for 12-14 days in a media specific to megakaryocyte expansion (Nikougoftar Zarif, M., et al., Cell journal 13:173-178 (2011)). The cells were labeled with a conjugated CD41 antibody and sorted by flow cytometry sorting.

[5] = test system: CD41− cells; conditions: same conditions as CD41+ cells
Experimental: CD41− cells were also cultured under the same conditions with the control being induced using TPO and DMSO.

[6] = test system: CB CD34+ cells
Experimental: FIG. 24. […] On the right is a heat map illustrating the values of expression in terms of fold increase over controls. Green is indicative of up-regulation while red is down-regulation.
Cells were analyzed via Qiagen's PAHS-054Z hematopoiesis array containing 81 genes.

[7] = test system: C57BL/6J mice given 5-FU
Experimental: FIG. 25. […] Fifteen 8-week old mice were given IP injections of 5-FU (250 mg/kg) on day 0. Complete blood counts (CBCs) were done on day 2, 4, 6, 9, and 12. 616452 (10 mg/kg) was introduced via IP injections on day 5, 7 and 9. The above data is a representative sample of the overall experiment. Data values from day 4 are not included.
The inventors used C57BL/6J mice to administrate with SFU, a chemotherapy agent (150 mg/kg, intraperitoneal injection). Peripheral blood (100 ul each) from injected mice is collected for assessment of the peripheral blood count using a hematology analyzer.
616452 was introduced to eight of the mice at this point and was injected every other day for a total of three doses.

[8] = Giemsa-Wright staining (FIG. 19B)
[9] = greater dose vs 10 μM standard (FIG. 20B)

With `Cc1cccc(-c2n[nH]cc2-c2ccc3ncccc3n2)n1` [compound 616452, 2-[3-(6-methyl-2-pyridinyl)-1H-pyrazol-4-yl]-1,5-naphthyridine] the “expansion of CD34+ cells” value ([1]; 5 days, 10 μM) was “rapidly expanded the CD34+ cells”, the “effect on CD34+CD38+ and CD34+CD38− populations” value ([1]; 11 days, C, 6, F at 10 μM, Z at 100 nM, listed as 6) was “best effect enhancing both CD34+CD38- and CD34+ and CD38+ positive cells; also recorded: ability to enhance both the population of single positive (CD34+CD38−) and double positive (CD34+CD38+) cells; also recorded: the most effects on the CD34+CD38− population” and the “fold increase of CD34+CD41+ cells” value ([2]; 4 days culture, flow cytometry) was 2 fold. The average cell size [2, 8] was “around 50 um”, the “cell size, largest” value [2, 8] was ≤ 90 μm and the “percentage of CD41 increased” value ([2]; after 5 days of culture, 10 μM, N>3 experiments) was 50-100%. The “increase in the CD41+ population” value ([2]; within 4 days of culture, flow cytometry) was ~100%, the “cluster formation at high concentrations” value [3] was “no clusters in 4× concentrations or higher” and the “culture composition by 8 days” value [3] was “predominately composed of megakaryocytes”. For the same compound, the “change in number of 8N, 16N and 32N cells between 8 and 12 days of induction” value ([3]; 10 μM) was “nearly doubled”, the “days of culture until appearance of large megakaryocyte-like cells” value ([3]; 10 μM) was 4 days and the “growth of the cells relative to control” value ([3]; 10 μM (1×)) was 25-50%. The “megakaryocytic features (large nuclear size, cytoplasmic mass)” value ([3]; 4 or 8 day culture with TPO) was “megakaryocytes with these features were easily observed”, the “increase of CD41 expression compared to control” value ([3]; 4 days induction, flow cytometry) was 27% and the “number of cells with greater ploidy” value ([3]; 8 days induction) was “drastically increased number of cells with greater ploidy”. For the same compound, the “cells of 16N ploidy out of 10,000 events” value ([3]; 8 days induction, PI staining) was “over 100 cells”, the “CD34+CD41+ population” value ([3]; flow analysis (FIG. 19C)) was “an increase in the CD34^+ CD41^+ population” and the “increase of the CD41+ population” value ([3]; flow analysis, 5 days induction (FIG. 19C)) was 25-40%. For the same compound, the “fold increase over the standard in 8N cells” value [3, 9] was 1.68 fold, the “fold increase over the standard in 16N cells” value [3, 9] was 2.5 fold and the “fold increase over the standard in 32N cells” value [3, 9] was 6 fold. The cell death ([3]; human, 48 h, 100 μM) was “all the cells died within 48 hours”, the “fold increase of 4N cells over control” value ([3]; time dependence study) was 5 fold and the “fold increase of 8N cells over control” value ([3]; time dependence study) was 30 fold. For the same compound, the “fold increase of 16N cells over control” value ([3]; time dependence study) was 80 fold, the “time until cells began to increase their size” value [4] was ≤ 2 days and the “cells of 8N out of 10,000 events” value ([4]; 8 days of induction) was 2018 cells. For the same compound, the “cells of 16N out of 10,000 events” value ([4]; 8 days of induction) was 585 cells, the “cells of 32N or greater out of 10,000 events” value ([4]; 8 days of induction) was 86 cells and the “fold increase in 8N” value ([4]; 8 days, vs DMSO control) was 30 fold. The “fold increase in the number of 4N” value ([4]; 8 days, vs DMSO control) was 4.5 fold, the “cells positive in CD41 live cell stain” value ([4]; after 8 days of induction) was 95% and the cluster size ([4]; around day 4) was 5-15 cells. The cluster size ([4]; by day 6) was 25-50 cells, the “cells appearing large in size by eye” value ([4]; day 6) was “approximately 80%” and the highest ploidy reached ([4]; within 8 days of culture) was ≤ 64N. For the same compound, the ploidy development [5] was “slight increase in ploidy”, the “PF4 expression on day 4 compared to that on day 2” value [6] was “more than 11 fold” and the genes down-regulated ([6]; day 2 of induction) was “one”. For the same compound, the genes down-regulated ([6]; day 4 of induction) was “four”, the “platelet counts by day 12” value ([7]; 10 mg/kg every other day, three doses, after 5-FU) was “almost twice as many platelets as normal mice” and the “white blood cell count” value ([7]; chemotherapy treated mice) was “significant improvement or recovery of the white blood cell count”. For the same compound, the “platelet counts in mice not given 5-FU” value ([7]; mouse, in vivo) was “little to no change”.
